Data as given in patent US20160038235A1, “INGENOL MEBUTATE IN COMBINATION WITH LASER THERAPY FOR THE TREATMENT OF HYPE[…] LESIONS” (LEO LABORATORIES LIMITED, priority 2013, published 2016).

Assay: Penetration of ingenol mebutate in static in vitro Franz cell model after fractional Er:YAG laser pre-treatment
Type: in vitro ADME, porcine
Set-up: Uptake: unit not given here
Conditions: for Uptake: 21 h
Procedure: Penetration of Ingenol mebutate was investigated in a static in vitro Franz cell model, using porcine skin. Prior to ingenol mebutate application, the skin was pre-treated with a fractional 2940 Er:YAG laser. Two settings were used based on pulse durations at 125 or 225 μs, and power at 1.3 or 1.7 W, delivering total energies per laser channel at 11 or 128 mJ, respectively. The settings were investigated at 1, 5 and 10% densities. The shape and depth of the micropores were evaluated in a dissecting microscope. After 21 h in the Franz cells, stratum corneum was tape stripped and liquid chromatography-mass spectrometry (LC-MS) was used to analyze IngMeb concentrations in stratum corneum, skin and receptor fluid.

C/C=C(/C)C(=O)O[C@H]1C(C)=C[C@]23C(=O)[C@@H](C=C(CO)[C@@H](O)[C@]12O)[C@H]1[C@@H](C[C@H]3C)C1(C)C [ingenol mebutate]
Uptake (1—No Laser, Dermis): 508 | Uptake (1—No Laser, Epidermis): 606 | Uptake (1—No Laser, Receiver): 0 | Uptake (1—No Laser, SC): 708 | Enhancement Factor (1—No Laser, Viable skin (reference)): 1 | Uptake (1—No Laser, Viable skin): 1114 | Uptake (2—Superficial 1% (approx. 50 μm micropores), Viable skin): 1340 | Uptake (2—Superficial 1%, Dermis): 843 | Uptake (2—Superficial 1%, Epidermis): 558 | Uptake (2—Superficial 1%, Receiver): 122 | Uptake (2—Superficial 1%, SC): 603 | Enhancement Factor (2—Superficial 1%, Viable skin, vs No laser): 1.20 | Uptake (3—Superficial 5%, Dermis): 1584 | Uptake (3—Superficial 5%, Epidermis): 568 | Uptake (3—Superficial 5%, Receiver): 408 | Uptake (3—Superficial 5%, SC): 135 | Uptake (3—Superficial 5%, Viable skin): 2152 | Enhancement Factor (3—Superficial 5%, Viable skin, vs No laser): 1.93 | Uptake (4—Superficial 10%, Dermis): 1801 | Uptake (4—Superficial 10%, Epidermis): 388 | Uptake (4—Superficial 10%, Receiver): 547 | Uptake (4—Superficial 10%, SC): 59 | Uptake (4—Superficial 10%, Viable skin): 2189 | Enhancement Factor (4—Superficial 10%, Viable skin, vs No laser): 1.97 | Uptake (5—Mid-Dermal-1% (approx. 500 μm micropores), Viable skin): 1510 | Uptake (5—Mid-Dermal-1%, Dermis): 1076 | Uptake (5—Mid-Dermal-1%, Epidermis): 366 | Uptake (5—Mid-Dermal-1%, Receiver): 304 | Uptake (5—Mid-Dermal-1%, SC): 369 | Enhancement Factor (5—Mid-Dermal-1%, Viable skin, vs No laser): 1.35 | Uptake (6—Mid-Dermal 5%, Dermis): 1744 | Uptake (6—Mid-Dermal 5%, Epidermis): 386 | Uptake (6—Mid-Dermal 5%, Receiver): 677 | Uptake (6—Mid-Dermal 5%, SC): 127 | Uptake (6—Mid-Dermal 5%, Viable skin): 2126 | Enhancement Factor (6—Mid-Dermal 5%, Viable skin, vs No laser): 1.91 | Uptake (7—Mid-Dermal 10%, Dermis): 1986 | Uptake (7—Mid-Dermal 10%, Epidermis): 260 | Uptake (7—Mid-Dermal 10%, Receiver): 622 | Uptake (7—Mid-Dermal 10%, SC): 9 | Uptake (7—Mid-Dermal 10%, Viable skin): 2224 | Enhancement Factor (7—Mid-Dermal 10%, Viable skin, vs No laser): 2.00 | accumulation in the epidermis, laser compared with no laser pre-treatment (10% density at 50 μm micropores, all densities at 500 μm micropores): decreased ingenol mebutate in the epidermis | accumulation in stratum corneum (SC), laser pre-treatment compared with no laser pre-treatment (50 μm and 500 μm micropores, decreasing with increasing density): less ingenol mebutate was accumulated | increase in ingenol mebutate in the dermis with laser pre-treatment compared with no laser pre-treatment (density dependent (1-10%)): 1.7-3.9 fold | dermis uptake, 10% density compared with 5%, and 500 μm compared with 50 μm micropores (laser pre-treatment): no added benefit was observed | improved uptake in the epidermis relative to uptake without use of the laser (maximum): ≤ 4 times | delivery of ingenol mebutate to dermis, increase following laser pre-treatment compared to no laser pre-treatment (maximum increase): ≤ 4 fold
